The test system of data set [1] is Mus musculus. The experiment in a line: Neurotoxicity in mouse assessed as induction of motor impairment at 30 mg/kg, ip measured at 0.5 hrs post dose by rotarod method. It counts as toxicity, organism-based. Conditions: in vivo. (The rotarod test checks motor coordination on a turning rod.)
Data set [2] concerns Mus musculus. As to the kind of experiment: Neurotoxicity in mouse assessed as induction of motor impairment at 100 mg/kg, ip measured at 4 hrs post dose by rotarod method. It is filed as toxicity, organism-based. Conditions: in vivo.
The test system of data set [3] is Mus musculus. As to the kind of experiment: Anticonvulsant activity in pentylenetetrazole induced seizure mouse model assessed as no observable episode of clonic convulsion of at least 5 secs at 300 mg/kg, ip measured at 0.5 hrs post dose. It is filed as functional, organism-based.
The test system of data set [4] is Mus musculus. As to the kind of experiment: Anticonvulsant activity in pentylenetetrazole induced seizure mouse model assessed as no observable episode of clonic convulsion of at least 5 secs at 300 mg/kg, ip measured at 4 hrs post dose. It is filed as functional, organism-based.
The subject of data set [5] is Mus musculus. As to the kind of experiment: Anticonvulsant activity in maximal electroshock induced seizure mouse model assessed as suppression in hindlimb tonic extension at 300 mg/kg, ip measured at 4 hrs post dose. It counts as functional, organism-based. A general note: Protection in the maximal electroshock model is a classic sign of anticonvulsant action.
Data set [6] deals with Mus musculus. As to the kind of experiment: Neurotoxicity in mouse assessed as induction of motor impairment at 300 mg/kg, ip measured at 4 hrs post dose by rotarod method. It is filed as toxicity, organism-based. Conditions: in vivo.
Data set [7] deals with Mus musculus. The experiment in a line: Anticonvulsant activity in pentylenetetrazole induced seizure mouse model assessed as no observable episode of clonic convulsion of at least 5 secs at 100 mg/kg, ip measured at 0.5 hrs post dose. It counts as functional, organism-based.
The test system of data set [8] is Mus musculus. The experiment in a line: Neurotoxicity in mouse assessed as induction of motor impairment at 300 mg/kg, ip measured at 0.5 hrs post dose by rotarod method. It is filed as toxicity, organism-based. Conditions: in vivo.
Data set [9] concerns Mus musculus. The experiment in a line: Neurotoxicity in mouse assessed as induction of motor impairment at 30 mg/kg, ip measured at 4 hrs post dose by rotarod method. It is filed as toxicity, organism-based. Conditions: in vivo.
The test system of data set [10] is Mus musculus. As to the kind of experiment: Anticonvulsant activity in maximal electroshock induced seizure mouse model assessed as suppression in hindlimb tonic extension at 300 mg/kg, ip measured at 0.5 hrs post dose. It counts as functional, organism-based.
Data set [11] deals with Rattus norvegicus. As to the kind of experiment: Anticonvulsant activity in po dosed pentylenetetrazole induced seizure rat model. It counts as functional.
In data set [12] the test system is Mus musculus. As to the kind of experiment: Anticonvulsant activity in ip dosed pentylenetetrazole induced seizure mouse model. It is filed as functional.
For data set [13], the system named is Mus musculus. As to the kind of experiment: Anticonvulsant activity in ip dosed 6-Hz induced seizure mouse model assessed as restoration of normal activity within 10 secs from stimulation at 44 mA. It counts as functional.
A short description of data set [14]: Displacement of [125I]Tyr11-somatostatin-14 from Sst receptor in mouse AtT-20 cells measured after 60 mins by scintillation counting method. It counts as cell-based. Conditions: att20. In general terms: Displacement assays read how much labelled ligand stays bound in the presence of the test substance.
Data set [15] is described as follows: Displacement of [3H]a,b-MeATP from rat urinary bladder P2X receptor measured after 120 mins by scintillation counting method.
Data set [16] relates to Mus musculus. The experiment in a line: Anticonvulsant activity in ip dosed maximal electroshock induced seizure mouse model assessed as suppression in hindlimb tonic extension by measuring time to peak effect. It counts as functional.
Data set [17] has as its system Rattus norvegicus. The experiment in a line: Neurotoxicity in Sprague-Dawley rat assessed as behavioral change at 30 mg/kg, po measured at 1 hr post dose. It counts as toxicity, organism-based. Conditions: in vivo.
A short description of data set [18]: Neurotoxicity in ip dosed mouse. It is filed as toxicity, organism-based. Conditions: in vivo.
Data set [19] concerns Rattus norvegicus. As to the kind of experiment: Neurotoxicity in Sprague-Dawley rat assessed as behavioral change at 30 mg/kg, ip measured at 4 hrs post dose. Conditions: in vivo. It is filed as toxicity, organism-based.
For data set [20], the system named is Rattus norvegicus. The experiment in a line: Neurotoxicity in Sprague-Dawley rat assessed as behavioral change at 30 mg/kg, po measured at 4 hrs post dose. Conditions: in vivo. It counts as toxicity, organism-based.
Data set [21] has as its system Mus musculus. The experiment in a line: Anticonvulsant activity in ip dosed pentylenetetrazole induced seizure mouse model assessed as no observable episode of clonic convulsion of at least 5 secs by measuring time to peak effect. It is filed as functional.
Data set [22] relates to Mus musculus. The experiment in a line: Anticonvulsant activity in ip dosed maximal electroshock induced seizure mouse model assessed as suppression in hindlimb tonic extension. It counts as functional.
Data set [23] relates to Mus musculus. The experiment in a line: Anticonvulsant activity in maximal electroshock induced seizure mouse model assessed as suppression in hindlimb tonic extension at 30 mg/kg, ip measured at 4 hrs post dose. It is filed as functional, organism-based.
Data set [24] relates to Rattus norvegicus. As to the kind of experiment: Neurotoxicity in Sprague-Dawley rat assessed as behavioral change at 30 mg/kg, po measured at […] post dose. It counts as toxicity, organism-based. Conditions: in vivo.
Data set [25] deals with Rattus norvegicus. The experiment in a line: Neurotoxicity in Sprague-Dawley rat assessed as behavioral change at 30 mg/kg, po measured at 0.5 hrs post dose. It counts as toxicity, organism-based. Conditions: in vivo.
The nature of data set [26]: Protection index, ratio of TD50 for neurotoxicity in ip dosed mouse to ED50 for ip dosed maximal electroshock induced seizure mouse model. It is filed as toxicity, organism-based. Conditions: in vivo, read-out: Ratio TD50/ED50.
For data set [27], the system named is Rattus norvegicus. As to the kind of experiment: Neurotoxicity in Sprague-Dawley rat assessed as behavioral change at 30 mg/kg, ip measured at 0.5 hrs post dose. It counts as toxicity, organism-based. Conditions: in vivo.
The test system of data set [28] is Rattus norvegicus. As to the kind of experiment: Neurotoxicity in Sprague-Dawley rat assessed as behavioral change at 30 mg/kg, ip measured at […] post dose. It counts as toxicity, organism-based. Conditions: in vivo.
Data set [29] has as its system Mus musculus. As to the kind of experiment: Neurotoxicity in ip dosed mouse assessed as induction of motor impairment by measuring time to peak effect by rotarod method. Conditions: in vivo. It counts as toxicity, organism-based.
Data set [30] deals with Rattus norvegicus. The experiment in a line: Neurotoxicity in Sprague-Dawley rat assessed as behavioral change at 30 mg/kg, ip measured at 1 hr post dose. It counts as toxicity, organism-based. Conditions: in vivo.
Data set [31] can be described thus: Protection index, ratio of TD50 for neurotoxicity in ip dosed mouse to ED50 for ip dosed pentylenetetrazole induced seizure mouse model. It counts as toxicity, organism-based. Conditions: in vivo, read-out: Ratio TD50/ED50.
Data set [32] relates to Rattus norvegicus. As to the kind of experiment: Anticonvulsant activity in maximal electroshock induced seizure Sprague-Dawley rat model assessed as suppression in hindlimb tonic extension at 30 mg/kg, po measured at 2 hrs post dose. It counts as functional, organism-based.
Data set [33] concerns Rattus norvegicus. As to the kind of experiment: Neurotoxicity in Sprague-Dawley rat assessed as behavioral change at 30 mg/kg, ip measured at 2 hrs post dose. Conditions: in vivo. It counts as toxicity, organism-based.
The test system of data set [34] is Rattus norvegicus. As to the kind of experiment: Neurotoxicity in Sprague-Dawley rat assessed as behavioral change at 30 mg/kg, po measured at 2 hrs post dose. Conditions: in vivo. It counts as toxicity, organism-based.
Data set [35] relates to Mus musculus. As to the kind of experiment: Anticonvulsant activity in ip dosed pentylenetetrazole induced seizure mouse model assessed as no observable episode of clonic convulsion of at least 5 secs. It counts as functional.
Data set [36] deals with Mus musculus. The experiment in a line: Anticonvulsant activity in maximal electroshock induced seizure mouse model assessed as suppression in hindlimb tonic extension at 100 mg/kg, ip measured at 4 hrs post dose. It counts as functional, organism-based.
For data set [37], the system named is Mus musculus. The experiment in a line: Anticonvulsant activity in 6-Hz induced seizure mouse model assessed as restoration of normal activity within 10 secs from stimulation at 100 mg/kg, ip at 32 mA measured at 4 hrs post dose. It is filed as functional, organism-based.
For data set [38], the target named is Vasoactive intestinal polypeptide receptor 1 (Homo sapiens, UniProt P32241). As to the kind of experiment: Displacement of [125I]VIP from human recombinant VPAC1 receptor expressed in CHO cells measured after 60 mins by scintillation counting method. It counts as cell-based.
Data set [39] deals with Rattus norvegicus. The experiment in a line: Anticonvulsant activity in po dosed pentylenetetrazole induced seizure Sprague-Dawley rat model assessed as no observable episode of clonic convulsion of at least 5 secs. It is filed as functional.
Data set [40] relates to Mus musculus. The experiment in a line: Anticonvulsant activity in ip dosed 6-Hz induced seizure mouse model assessed as restoration of normal activity within 10 secs from stimulation at 32 mA. It counts as functional.

The source made the active and inactive calls. The calls are words filed in the database; no cut-off is given here.

Vasoactive intestinal polypeptide receptor 1, sequence (P32241 whole entry): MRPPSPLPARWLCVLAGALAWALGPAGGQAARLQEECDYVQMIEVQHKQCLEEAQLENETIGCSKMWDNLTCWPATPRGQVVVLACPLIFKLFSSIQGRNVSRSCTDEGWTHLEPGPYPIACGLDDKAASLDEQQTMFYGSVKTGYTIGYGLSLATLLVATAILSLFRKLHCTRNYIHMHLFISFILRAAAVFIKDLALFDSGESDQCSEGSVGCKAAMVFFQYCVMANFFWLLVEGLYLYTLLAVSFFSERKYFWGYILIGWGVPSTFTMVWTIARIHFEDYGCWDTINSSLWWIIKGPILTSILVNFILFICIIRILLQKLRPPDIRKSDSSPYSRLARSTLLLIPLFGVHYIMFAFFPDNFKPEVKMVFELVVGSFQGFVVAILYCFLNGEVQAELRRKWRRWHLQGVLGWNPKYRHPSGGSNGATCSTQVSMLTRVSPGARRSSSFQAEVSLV

With `CCC(O)CNC(=O)/C=C/c1ccc(Cl)cc1` (stereo not given), the Activity entry in the data set on Mus musculus [1] was “Non-Toxic”; in the data set with Mus musculus [2] it was “Non-Toxic”; in the data set with Mus musculus [6], “Toxic”; in the data set with Mus musculus [8] it was “Toxic”; with Mus musculus [9] it was “Non-Toxic”. For the same compound, the result with Mus musculus [3], in the data set with Mus musculus [4], in the data set with Mus musculus [5], in the data set on Mus musculus [7] and in the data set with Mus musculus [10] was Active.

Consider `CCCC(CCC)C(=O)O` [VALPROIC ACID], for which the ED50 was found to be 646 mg/kg in the data set on Rattus norvegicus [11], 220 mg/kg in the data set on Mus musculus [12] and 310 mg/kg with Mus musculus [13].

`C[C@H](N)C(=O)NCC(=O)N[C@H]1CSSC[C@@H](C(=O)O)NC(=O)[C@H](CO)NC(=O)[C@H]([C@@H](C)O)NC(=O)[C@H](Cc2ccccc2)NC(=O)[C@H]([C@@H](C)O)NC(=O)[C@H](CCCCN)NC(=O)[C@H](Cc2c[nH]c3ccccc23)NC(=O)[C@H](Cc2ccccc2)NC(=O)[C@H](Cc2ccccc2)NC(=O)[C@H](CC(N)=O)NC(=O)[C@H](CCCCN)NC1=O` [SOMATOSTATIN] came in with an IC50 in data set [14] of 0.074 nM.

`Nc1ncnc2c1ncn2[C@@H]1O[C@H](COP(=O)(O)CP(=O)(O)OP(=O)(O)O)[C@@H](O)[C@H]1O` [DIPHOSPHOMETHYLPHOSPHONIC ACID ADENOSYL ESTER]: the IC50 in data set [15] came out at 1.9 nM.

For `O=C(/C=C/c1ccc(Cl)cc1)N[C@H]1CC[C@H](O)CC1`, the Activity entry in the data set on Mus musculus [1], in the data set with Rattus norvegicus [17], with Rattus norvegicus [19], in the data set with Rattus norvegicus [20], in the data set on Rattus norvegicus [24] and in the data set with Rattus norvegicus [25] was “Non-Toxic” in each case. In addition, the Activity entry in the data set with Rattus norvegicus [27], in the data set with Rattus norvegicus [28], in the data set on Rattus norvegicus [30], in the data set on Mus musculus [6], in the data set on Rattus norvegicus [33] and with Rattus norvegicus [34] was “Non-Toxic” throughout. Further, in the data set on Mus musculus [9], the Activity entry is given as “Non-Toxic”. The results for the Time in the data set with Mus musculus [16], in the data set with Mus musculus [21] and in the data set on Mus musculus [29] were 2 h, 2 h and 6 h, respectively. Moreover, in [18], the TD50 is over 600 mg/kg. Also, the ED50 in the data set on Mus musculus [22] was 186 mg/kg; in the data set with Mus musculus [35] it was 317 mg/kg. Further, the result in the data set with Mus musculus [23], with Mus musculus [5], in the data set with Rattus norvegicus [32], with Mus musculus [36] and with Mus musculus [37] was Active. The selectivity ratio in data set [26] is over 3.22; in data set [31], over 1.9.

For the compound H-HSDAVFTDNYTRLRKQLAVKKYLNSILN-NH2, in [38], the IC50 was 0.11 nM.

In the case of `NC(=O)N1c2ccccc2C=Cc2ccccc21` [CARBAMAZEPINE], the ED50 was over 250 mg/kg in the data set on Rattus norvegicus [39], over 50 mg/kg with Mus musculus [12] and 47.9 mg/kg in the data set with Mus musculus [40].

Broadly, the ED50 is the midpoint of the dose-response relation. A word on the IC50: it is the concentration that inhibits the measured activity by half. Usually TD50 stands for the dose at which the toxic effect under study appears in half of the subjects. Low values mean greater toxicity, high ones lower toxicity.

The values above are taken from ChEMBL document CHEMBL3875185, “Structure-anticonvulsant activity studies in the group of (E)-N-cinnamoyl aminoalkanols derivatives monosubstituted in phenyl ring with 4-Cl, 4-CH3 or 2-CH3” (Bioorg Med Chem, 2017).
